Test [1] concerns the target SphK2. The conditions noted are these: cited from earlier work.
The test system of test [2] is 60 cell lines (NCI). Set-up: method as in NCI cancer-screening platform (NSC796101). The conditions noted are these: ref NCI cancer-screening platform (NSC796101); read-out: Mean GI50 across 60 cell lines; cited from earlier work.
Test [3] has as its target T1, recombinant human SphK2 (Homo sapiens, UniProt Q9NRA0).
T1 sequence (Q9NRA0 1-654): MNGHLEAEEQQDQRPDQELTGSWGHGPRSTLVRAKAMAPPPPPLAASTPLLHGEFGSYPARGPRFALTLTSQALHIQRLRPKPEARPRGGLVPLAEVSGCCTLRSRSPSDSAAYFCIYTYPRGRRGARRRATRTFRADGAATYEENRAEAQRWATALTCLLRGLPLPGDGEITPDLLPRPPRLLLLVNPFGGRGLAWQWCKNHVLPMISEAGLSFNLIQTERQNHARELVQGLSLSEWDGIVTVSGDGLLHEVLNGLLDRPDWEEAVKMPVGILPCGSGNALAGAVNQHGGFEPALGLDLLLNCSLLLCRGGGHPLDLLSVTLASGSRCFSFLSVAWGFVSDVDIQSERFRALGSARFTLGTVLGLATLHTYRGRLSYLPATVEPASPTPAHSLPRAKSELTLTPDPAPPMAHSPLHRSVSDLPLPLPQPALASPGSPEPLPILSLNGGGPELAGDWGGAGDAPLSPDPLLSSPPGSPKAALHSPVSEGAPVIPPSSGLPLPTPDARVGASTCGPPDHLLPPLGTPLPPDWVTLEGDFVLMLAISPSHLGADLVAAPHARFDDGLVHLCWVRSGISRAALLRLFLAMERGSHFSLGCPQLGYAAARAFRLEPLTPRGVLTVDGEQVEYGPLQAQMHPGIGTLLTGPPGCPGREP
The experiment in a line: Fluorometric NBD-sphingosine sphingosine kinase inhibition assay, SphK2.
Experimental: (§1) The fluorescence-based assay involved incubating the quinoline-5,8-diones with SphK isoforms individually (recombinant SphK1 and SphK2 in duplicate) [41].
(§2) The relevant enzymes and inhibitors were incubated in total reaction volumes of 100 µL with 10 µM NBD-sphingosine, 500 µM 4-deoxypyridoxine and 1 mM Mg-ATP in assay buffer (100 mM Tris/HCl (pH 7.4), 150 mM NaCl, 2 mM Na3VO4 and 10 mM NaF) for 30 min at 37 °C. A reaction mixture containing no test SphK inhibitor served as the positive control, while a reaction mixture containing no Mg-ATP served as the negative control. Post-incubation, 100 µL of potassium phosphate buffer, pH 8.5, was added to each Eppendorf, followed by 500 µL of 2:1 Chloroform/Methanol. After brief mixing with a vortex, phases were separated by centrifugation at 2000 rpm for 5 min. […] Data are expressed as mean SD from a minimum of 2 independent experiments. […] From this, the IC50 values of several test inhibitors were calculated.

The target in test [4] is recombinant human SphK1 (Homo sapiens, UniProt Q9NYA1). As to the kind of experiment: Fluorometric NBD-sphingosine sphingosine kinase inhibition assay, SphK1.
Experimental: as §1, §2
In test [5] the test system is head and neck squamous cell carcinoma (SCC) cells. Set-up: method as in PMID 29109864. The conditions noted are these: cited from earlier work.
Test [6] deals with SphK1. The conditions noted are these: cited from earlier work.
The test system of test [7] is A498 kidney adenocarcinoma cells. Set-up: method as in PMID 22970244. The following applies: read-out: EC50, reduced proliferation; cited from earlier work.

Like-named read-outs stand apart in the source and are kept apart here.

Sequence of recombinant human SphK1 (Q9NYA1 whole entry): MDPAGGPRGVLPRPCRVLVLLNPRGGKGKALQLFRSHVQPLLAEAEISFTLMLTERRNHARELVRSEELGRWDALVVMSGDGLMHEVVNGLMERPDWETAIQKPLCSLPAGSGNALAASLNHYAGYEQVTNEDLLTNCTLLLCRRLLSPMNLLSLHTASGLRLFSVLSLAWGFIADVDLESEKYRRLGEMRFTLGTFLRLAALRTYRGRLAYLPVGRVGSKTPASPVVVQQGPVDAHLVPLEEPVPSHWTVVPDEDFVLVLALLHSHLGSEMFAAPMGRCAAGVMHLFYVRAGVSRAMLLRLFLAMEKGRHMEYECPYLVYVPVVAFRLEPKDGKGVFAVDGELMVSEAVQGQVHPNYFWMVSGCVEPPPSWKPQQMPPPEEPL

In the case of `O=C(NCc1ccncc1)C12CC3CC(C1)CC(c1ccc(Cl)cc1)(C3)C2` [opaganib, reference compound], the inhibitory constant (Ki) in test [1] (ref 20-24 (b6), 19, 22) is 9.8 µM. The GI50 in test [2] is 11.5 µM. Moreover, the inhibition at 10 µM is 36% in test [3] (read-out: SphK2 inhibition, 10 μM compound); 35.5% in test [3] (read-out: Spk2 % Inhibition, 10uM, Table S2 assay validation); -8.6% in test [4] (read-out: Spk1 % Inhibition, 10uM, Table S2 assay validation). The “Selectivity between SphK1 and SphK2 (in words)” value in test [4] (single-concentration screen, SphK1 versus SphK2) is “high SphK2 selectivity”.
Regarding `Cc1cc(CS(=O)(=O)c2ccccc2)cc(OCc2ccc(CN3CCC[C@@H]3CO)cc2)c1` [PF-543], the “Necrotic SCC cells induced by PF-543” value is given as 26.3% in test [5] (with addition of ROS scavenger N-acetyl-L-cysteine) and 48.6% in test [5] (without ROS scavenger). For the same molecule, in test [3] (read-out: Spk2 % Inhibition), the inhibition at 0.1 µM worked out at 0.7%.
For `CC(=O)N(C1=C(Cl)C(=O)c2ccccc2C1=O)C1CCCCC1` [CB5468139], the “Concentration up to which SphK2 activity is not affected” value in test [1] is over 100 µM. Further, in test [6], the inhibition constant (Ki) was 0.3 µM. In test [7], the EC50 is 10 to 15 µM.

As usually defined, the Ki is a dissociation constant, usually derived from enzyme kinetics or from competition with a known ligand. In general, GI50 refers to the concentration that inhibits growth by half. The inhibition is the drop in the measured response relative to a control, in per cent.

The values above are taken from article PMC11859825, “Discovery of Sphingosine Kinase Inhibition by Modified Quinoline-5,8-Diones” (Pharmaceuticals, 2025).
